Laboratory results as given in US8574563B2 (Bristol-Myers Squibb Company, priority 2006, dated 2013).

Each compound was assayed on HCV 1b-377-neo replicon cells (assay: HCV replicon assay, HCV 1b-377-neo replicon cells (1b FRET)). Settings: Hepatitis C virus, HCV 1b-377-neo replicon cells; HCV 1b genotype; read-out: EC50 range against HCV 1b (Table 2, Range).
Assay type: cell-based, Hepatitis C virus genotype 1b
Method in brief: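 Compounds tested in HCV genotype 1b-377-neo replicon cells with a FRET read-out. Cells resistant to a reference NS5A inhibitor through a Y2065H NS5A mutation were run alongside wild-type cells.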
Work on `COC(=O)N[C@@H](C(=O)N1CCC[C@H]1c1ncc(-c2ccc(-c3ccc(-c4cnc([C@@H]5CCCN5C(=O)C(c5ccccc5F)N(C)C)[nH]4)cc3)cc2)[nH]1)c1ccccc1` (stereo partly drawn) [Example 84-59, methyl ((1R)-2-((2S)-2-(5-(4′-(2-((2S)-1-((dimethylamino)(2-fluorophenyl)acetyl)-2-pyrrolidinyl)-1H-imidazol-5-yl)-4-biphenylyl)-1H-imidazol-2-yl)-1-pyrrolidinyl)-2-oxo-1-phenylethyl)carbamate] yielded an EC50 of 0.001 to 0.999 nM. `COC(=O)N[C@H](C(=O)N1CCC[C@H]1c1ncc(-c2ccc(-c3ccc(-c4cnc([C@@H]5CCCN5C(=O)[C@@H](NC5=NCCN5)C(C)C)[nH]4)cc3)cc2)[nH]1)C(C)C` [cj-11e, methyl ((1S)-1-(((2S)-2-(5-(4′-(2-((2S)-1-(N-(4,5-dihydro-1H-imidazol-2-yl)-L-valyl)-2-pyrrolidinyl)-1H-imidazol-5-yl)-4-biphenylyl)-1H-imidazol-2-yl)-1-pyrrolidinyl)carbonyl)-2-methylpropyl)carbamate] showed an EC50 of 1000 to 10000 nM. For `COC(=O)N[C@@H](CC(=O)N1CCC[C@H]1c1ncc(-c2ccc(-c3ccc(-c4cnc([C@@H]5CCCN5C(=O)C[C@@H](Cc5ccccc5)NC(=O)OC)[nH]4)cc3)cc2)[nH]1)Cc1ccccc1` [cj-143, dimethyl (4,4′-biphenyldiylbis(1H-imidazole-5,2-diyl(2S)-2,1-pyrrolidinediyl((2R)-4-oxo-1-phenyl-4,2-butanediyl)))biscarbamate], the EC50 was 1000 to 10000 nM. `CN(C)[C@@H](C(=O)N1CCC[C@H]1c1ncc(-c2ccc(-c3ccc(-c4cnc([C@@H]5CCCN5C(=O)Cc5cnc[nH]5)[nH]4)cc3)cc2)[nH]1)c1ccccc1` [Example 94-50, (1R)-2-((2S)-2-(5-(4′-(2-((2S)-1-(1H-imidazol-5-ylacetyl)-2-pyrrolidinyl)-1H-imidazol-5-yl)-4-biphenylyl)-1H-imidazol-2-yl)-1-pyrrolidinyl)-N,N-dimethyl-2-oxo-1-phenylethanamine] was tested, and the EC50 was 0.001 to 0.999 nM. In the case of `COC(=O)N[C@@H](C)C(=O)N1[C@@H](C)CC[C@H]1c1nc(-c2ccc(-c3ccc(-c4c[nH]c([C@@H]5CC[C@H](C)N5C(=O)[C@H](C)NC(=O)OC)n4)cc3)cc2)c[nH]1` [Example M157, methyl ((1S)-2-((2S,5S)-2-(4-(4′-(2-((2S,5S)-1-(N-(methoxycarbonyl)-L-alanyl)-5-methyl-2-pyrrolidinyl)-1H-imidazol-4-yl)-4-biphenylyl)-1H-imidazol-2-yl)-5-methyl-1-pyrrolidinyl)-1-methyl-2-oxoethyl)carbamate], the EC50 is reported as 0.001 to 0.999 nM. For `COC(=O)N[C@@H](C)C(=O)N1C[C@@H](O)C[C@H]1c1ncc(-c2ccc(-c3ccc(-c4cnc([C@@H]5C[C@H](O)CN5C(=O)[C@H](C)NC(=O)OC)[nH]4)cc3)cc2)[nH]1` [JG-8, methyl ((1S)-2-((2S,4S)-4-hydroxy-2-(5-(4′-(2-((2S,4S)-4-hydroxy-1-(N-(methoxycarbonyl)-L-alanyl)-2-pyrrolidinyl)-1H-imidazol-5-yl)-4-biphenylyl)-1H-imidazol-2-yl)-1-pyrrolidinyl)-1-methyl-2-oxoethyl)carbamate], the EC50 was 0.001 to 0.999 nM. For `CCN(CC)[C@@H](C(=O)N1CCC[C@H]1c1ncc(-c2ccc(-c3ccc(-c4cnc([C@@H]5CCCN5C(=O)C[C@H](C)NC(=O)OC)[nH]4)cc3)cc2)[nH]1)c1ccccc1` [cj-51, methyl ((1S)-3-((2S)-2-(5-(4′-(2-((2S)-1-((2R)-2-(diethylamino)-2-phenylacetyl)-2-pyrrolidinyl)-1H-imidazol-5-yl)-4-biphenylyl)-1H-imidazol-2-yl)-1-pyrrolidinyl)-1-methyl-3-oxopropyl)carbamate], the EC50 was 0.001 to 0.999 nM. Work on `COC(=O)N[C@@H]1CC[C@H](C(=O)N2CCC[C@H]2c2ncc(-c3ccc(-c4ccc(-c5cnc([C@@H]6CCCN6C(=O)[C@@H](NC(=O)OC)C(C)C)[nH]5)cc4)cc3)[nH]2)C1` [cj-62, methyl ((1S)-1-(((2S)-2-(5-(4′-(2-((2S)-1-(((1S,3R)-3-((methoxycarbonyl)amino)cyclopentyl)carbonyl)-2-pyrrolidinyl)-1H-imidazol-5-yl)-4-biphenylyl)-1H-imidazol-2-yl)-1-pyrrolidinyl)carbonyl)-2-methylpropyl)carbamate] yielded an EC50 of 0.001 to 0.999 nM. In the case of `COC(=O)N[C@@H](C(=O)N1CCC[C@H]1c1ncc(-c2ccc(-c3ccc(-c4cnc([C@@H]5CCCN5C(=O)[C@H](C)c5ccccc5)[nH]4)cc3)cc2)[nH]1)c1ccccc1` [Example 84-76, methyl ((1R)-2-oxo-1-phenyl-2-((2S)-2-(5-(4′-(2-((2S)-1-((2R)-2-phenylpropanoyl)-2-pyrrolidinyl)-1H-imidazol-5-yl)-4-biphenylyl)-1H-imidazol-2-yl)-1-pyrrolidinyl)ethyl)carbamate], the EC50 is reported as 0.001 to 0.999 nM. In the case of `COC(=O)N[C@@H](C)C(=O)N1CCC[C@H]1c1ncc(-c2ccc(-c3ccc(-c4cnc([C@@H]5CCCN5C(=O)[C@H](Cc5c[nH]c6ccccc56)NC(=O)OC)[nH]4)cc3)cc2)[nH]1` [cj-102, methyl ((1S)-2-((2S)-2-(5-(4′-(2-((2S)-1-((2S)-3-(1H-indol-3-yl)-2-((methoxycarbonyl)amino)propanoyl)-2-pyrrolidinyl)-1H-imidazol-5-yl)-4-biphenylyl)-1H-imidazol-2-yl)-1-pyrrolidinyl)-1-methyl-2-oxoethyl)carbamate], the EC50 is reported as 0.001 to 0.999 nM. With `COC(=O)N[C@@H](C(=O)N1CCC[C@H]1c1ncc(-c2ccc(-c3ccc(-c4cnc([C@@H]5CCCN5C(=O)[C@@H]5CCCO5)[nH]4)cc3)cc2)[nH]1)c1ccccc1` [Example 59, methyl ((1R)-2-oxo-1-phenyl-2-((2S)-2-(5-(4′-(2-((2S)-1-((2S)-tetrahydro-2-furanylcarbonyl)-2-pyrrolidinyl)-1H-imidazol-5-yl)-4-biphenylyl)-1H-imidazol-2-yl)-1-pyrrolidinyl)ethyl)carbamate] the EC50 was 0.001 to 0.999 nM. In the case of `O=C(N[C@@H](C(=O)N1CCC[C@H]1c1ncc(-c2ccc(-c3ccc(-c4cnc([C@@H]5CCCN5C(=O)[C@H]5CCCO5)[nH]4)cc3)cc2)[nH]1)c1ccccc1)N1CCOCC1` [Example 120, N-((1R)-2-oxo-1-phenyl-2-((2S)-2-(5-(4′-(2-((2S)-1-((2R)-tetrahydro-2-furanylcarbonyl)-2-pyrrolidinyl)-1H-imidazol-5-yl)-4-biphenylyl)-1H-imidazol-2-yl)-1-pyrrolidinyl)ethyl)-4-morpholinecarboxamide], the EC50 is reported as 0.001 to 0.999 nM. `O=C(CC1CC1)N1CCC[C@H]1c1ncc(-c2ccc(-c3ccc(-c4cnc([C@@H]5CCCN5C(=O)CC5CC5)[nH]4)cc3)cc2)[nH]1` [Example 12, 5,5′-(4,4′-biphenyldiyl)bis(2-((2S)-1-(cyclopropylacetyl)-2-pyrrolidinyl)-1H-imidazole)] gave an EC50 of 1 to 99 nM. `COCC[C@H](NC(=O)OC)C(=O)N1CCC[C@H]1c1ncc(-c2ccc(-c3ccc(-c4cnc([C@@H]5CCCN5C(=O)[C@@H](NC(=O)OC)C(C)C)[nH]4)cc3)cc2)[nH]1` [cj-119, methyl ((1S)-1-(((2S)-2-(5-(4′-(2-((2S)-1-(N-(methoxycarbonyl)-O-methyl-L-homoseryl)-2-pyrrolidinyl)-1H-imidazol-5-yl)-4-biphenylyl)-1H-imidazol-2-yl)-1-pyrrolidinyl)carbonyl)-2-methylpropyl)carbamate] gave an EC50 of 0.001 to 0.999 nM. Compound `COC(=O)N[C@@H](C(=O)N1CCC[C@H]1c1ncc(-c2ccc(-c3ccc(-c4cnc([C@@H]5CCCN5C(=O)CN)[nH]4)cc3)cc2)[nH]1)c1ccccc1` [Example 30, methyl ((1R)-2-((2S)-2-(5-(4′-(2-((2S)-1-glycyl-2-pyrrolidinyl)-1H-imidazol-5-yl)-4-biphenylyl)-1H-imidazol-2-yl)-1-pyrrolidinyl)-2-oxo-1-phenylethyl)carbamate] has an EC50 of 1 to 99 nM. With `COC(=O)N[C@H](C(=O)N1CCC[C@H]1c1ncc(-c2ccc(-c3ccc(-c4cnc([C@@H]5CCCN5C(=O)[C@@H](NC(=O)OC)C(C)C)[nH]4)c(F)c3)cc2)[nH]1)C(C)C` [Example D40, methyl ((1S)-1-(((2S)-2-(5-(3′-fluoro-4′-(2-((2S)-1-((2S)-2-((methoxycarbonyl)amino)-3-methylbutanoyl)-2-pyrrolidinyl)-1H-imidazol-5-yl)-4-biphenylyl)-1H-imidazol-2-yl)-1-pyrrolidinyl)carbony)-2-methylpropyl) carbamate] the EC50 was 0.001 to 0.999 nM. `CN1CCN(C(C(=O)N2CCC[C@H]2c2ncc(-c3ccc(-c4ccc(-c5cnc([C@@H]6CCCN6C(=O)[C@@H](c6ccccc6)N6CCCC6)[nH]5)cc4)cc3)[nH]2)c2ccccc2)CC1` (stereo partly drawn) [Example 98, 1-methyl-4-(2-oxo-1-phenyl-2-((2S)-2-(5-(4′-(2-((2S)-1-((2R)-2-phenyl-2-(1-pyrrolidinyl)acetyl)-2-pyrrolidinyl)-1H-imidazol-5-yl)-4-biphenylyl)-1H-imidazol-2-yl)-1-pyrrolidinyl)ethyl)piperazine] was tested, and the EC50 was 0.001 to 0.999 nM. `Cc1cc(-c2cnc([C@@H]3CCCN3C(=O)[C@@H](c3ccccc3)N(C)C)[nH]2)ccc1-c1ccc(-c2cnc([C@@H]3CCCN3C(=O)[C@@H](c3ccccc3)N(C)C)[nH]2)cc1C` [Example 121] gave an EC50 of 0.001 to 0.999 nM. In the case of `COC(=O)N[C@@H](Cc1cncn1C)C(=O)N1CCC[C@H]1c1ncc(-c2ccc(-c3ccc(-c4cnc([C@@H]5CCCN5C(=O)[C@@H](NC(=O)OC)[C@@H](C)OC)[nH]4)cc3)cc2)[nH]1` [cj-47, methyl ((1S)-2-((2S)-2-(5-(4′-(2-((2S)-1-((2S,3R)-3-methoxy-2-((methoxycarbonyl)amino)butanoyl)-2-pyrrolidinyl)-1H-imidazol-5-yl)-4-biphenylyl)-1H-imidazol-2-yl)-1-pyrrolidinyl)-1-((1-methyl-1H-imidazol-5-yl)methyl)-2-oxoethyl)carbamate], the EC50 is reported as 1 to 99 nM. With `COC(=O)N[C@@H](C(=O)N1CCC[C@H]1c1ncc(-c2ccc(-c3ccc(-c4cnc([C@@H]5CCCN5C(=O)[C@H]5CC[C@@H](NC(=O)OC(C)(C)C)CC5)[nH]4)cc3)cc2)[nH]1)c1ccccc1` [Example 84-35, methyl ((1R)-2-((2S)-2-(5-(4′-(2-((2S)-1-((cis-4-((tert-butoxycarbonyl)amino)cyclohexyl)carbonyl)-2-pyrrolidinyl)-1H-imidazol-5-yl)-4-biphenylyl)-1H-imidazol-2-yl)-1-pyrrolidinyl)-2-oxo-1-phenylethyl)carbamate] the EC50 was 0.001 to 0.999 nM.
